The values below come from PMC6934184, “Selective DNA-PKcs inhibition extends the therapeutic index of localized radiotherapy and chemotherapy” (The Journal of Clinical Investigation, 2019).

This assay concerns the target T1, MAP4K4 (HGK) (Homo sapiens, UniProt O95819).
T1 construct: purchased Thermo Fisher Scientific (Life Technologies) SelectScreen
The assay is described as follows: SelectScreen Z'LYTE. In kind it is biochemical. In a few lines:
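SelectScreen broad panel; activity (Z'LYTE, Adapta) plus binding formats. ATP: Km app for CSF1R Z'LYTE; 10 for CAMK1 Adapta. Readout = % per kinase.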

SMILES strings stand for the structures.

T1 sequence (O95819 whole entry): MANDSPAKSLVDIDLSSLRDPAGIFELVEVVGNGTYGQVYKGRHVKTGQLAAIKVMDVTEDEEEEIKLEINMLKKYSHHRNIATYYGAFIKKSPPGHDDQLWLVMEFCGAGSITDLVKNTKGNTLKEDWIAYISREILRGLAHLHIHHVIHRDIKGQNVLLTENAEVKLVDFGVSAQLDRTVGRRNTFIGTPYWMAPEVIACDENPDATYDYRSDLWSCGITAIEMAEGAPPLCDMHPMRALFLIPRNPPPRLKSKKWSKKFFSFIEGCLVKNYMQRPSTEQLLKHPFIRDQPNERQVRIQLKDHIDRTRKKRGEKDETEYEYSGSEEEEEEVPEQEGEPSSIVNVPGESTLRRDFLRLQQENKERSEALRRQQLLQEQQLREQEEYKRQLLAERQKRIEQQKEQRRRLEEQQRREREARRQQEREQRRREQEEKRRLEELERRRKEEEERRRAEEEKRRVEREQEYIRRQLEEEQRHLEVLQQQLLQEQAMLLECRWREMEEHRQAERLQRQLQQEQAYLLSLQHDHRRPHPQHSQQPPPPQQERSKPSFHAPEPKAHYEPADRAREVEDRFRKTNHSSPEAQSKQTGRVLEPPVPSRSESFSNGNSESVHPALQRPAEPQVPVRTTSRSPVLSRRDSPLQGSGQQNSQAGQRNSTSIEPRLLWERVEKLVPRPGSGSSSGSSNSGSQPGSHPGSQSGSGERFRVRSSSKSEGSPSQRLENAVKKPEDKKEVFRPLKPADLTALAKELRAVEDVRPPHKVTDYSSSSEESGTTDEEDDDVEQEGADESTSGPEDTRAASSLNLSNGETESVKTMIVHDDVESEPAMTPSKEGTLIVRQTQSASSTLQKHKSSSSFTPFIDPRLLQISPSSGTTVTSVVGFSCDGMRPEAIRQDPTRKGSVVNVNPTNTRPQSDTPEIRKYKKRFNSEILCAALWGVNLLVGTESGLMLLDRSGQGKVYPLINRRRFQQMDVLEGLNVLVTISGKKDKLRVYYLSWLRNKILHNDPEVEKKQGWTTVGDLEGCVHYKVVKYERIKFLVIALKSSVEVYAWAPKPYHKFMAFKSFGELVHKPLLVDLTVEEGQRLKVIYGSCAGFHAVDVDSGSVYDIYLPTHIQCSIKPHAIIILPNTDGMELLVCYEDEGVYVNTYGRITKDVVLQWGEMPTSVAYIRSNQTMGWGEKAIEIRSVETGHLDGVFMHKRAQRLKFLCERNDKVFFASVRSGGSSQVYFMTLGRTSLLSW

A word on the inhibition: it is the change of the read-out against control, counted positive when it falls. As for `CN(C(=O)CN1CCOCC1)c1ccc2sc3c(-c4cccc5c(=O)cc(N6CC7CCC(C6)O7)oc45)cccc3c2c1` [NU5455], the inhibition at 1 µM is -5.6%.
